Drawing on ChEMBL document CHEMBL1250536, “Identification of small molecule inhibitors of telomerase activity through transcriptional regulation of hTERT and calcium induction pathway in human lung adenocarcinoma A549 cells” (2010), this text covers inhibition and Activity for eleven compounds.

The target in assay [1] is Telomerase reverse transcriptase (Homo sapiens) (UniProt O14746). Briefly: Inhibition of telomerase in human A549 cells at 25 uM after 24 hrs by TRAP assay. Type of assay: cell-based.
Chain of Telomerase reverse transcriptase (Homo sapiens) (O14746 whole entry): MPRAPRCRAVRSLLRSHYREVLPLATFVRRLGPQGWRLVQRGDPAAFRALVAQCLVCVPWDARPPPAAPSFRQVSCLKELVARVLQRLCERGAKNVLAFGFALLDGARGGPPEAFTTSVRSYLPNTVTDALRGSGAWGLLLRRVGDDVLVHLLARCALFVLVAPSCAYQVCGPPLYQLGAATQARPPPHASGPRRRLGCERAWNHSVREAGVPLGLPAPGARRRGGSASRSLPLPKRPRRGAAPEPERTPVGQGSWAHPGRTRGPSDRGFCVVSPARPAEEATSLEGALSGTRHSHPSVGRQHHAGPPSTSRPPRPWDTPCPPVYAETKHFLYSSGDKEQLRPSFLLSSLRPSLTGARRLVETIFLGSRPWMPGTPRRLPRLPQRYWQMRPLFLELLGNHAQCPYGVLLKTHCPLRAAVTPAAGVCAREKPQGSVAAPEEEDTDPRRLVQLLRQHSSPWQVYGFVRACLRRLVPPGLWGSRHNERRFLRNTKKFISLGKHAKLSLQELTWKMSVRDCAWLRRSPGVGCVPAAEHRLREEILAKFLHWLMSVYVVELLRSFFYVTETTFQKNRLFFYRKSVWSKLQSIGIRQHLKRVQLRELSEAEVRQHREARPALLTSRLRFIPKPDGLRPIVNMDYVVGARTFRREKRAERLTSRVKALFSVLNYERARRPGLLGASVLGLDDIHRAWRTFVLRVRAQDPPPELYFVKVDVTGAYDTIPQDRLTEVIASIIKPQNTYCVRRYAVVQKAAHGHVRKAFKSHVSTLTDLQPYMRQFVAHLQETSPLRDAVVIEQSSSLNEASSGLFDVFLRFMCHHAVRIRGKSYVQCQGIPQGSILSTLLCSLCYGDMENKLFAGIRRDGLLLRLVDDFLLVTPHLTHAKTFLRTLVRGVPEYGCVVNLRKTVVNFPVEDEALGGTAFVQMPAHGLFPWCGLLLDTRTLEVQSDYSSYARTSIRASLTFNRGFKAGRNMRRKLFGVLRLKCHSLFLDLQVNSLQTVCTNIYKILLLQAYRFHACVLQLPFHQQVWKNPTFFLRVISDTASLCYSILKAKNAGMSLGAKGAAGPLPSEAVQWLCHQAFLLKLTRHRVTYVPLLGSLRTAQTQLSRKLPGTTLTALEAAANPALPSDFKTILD
In assay [2] the test system is A549. Briefly: Reduction of colony formation in human A549 cells at 12.5 uM after 24 hrs by anchorage-independence cell growth assay relative to control. Type of assay: functional. Further details: scale not given: the % may be the effect or the level left.
The target of assay [3] is Telomerase reverse transcriptase (Homo sapiens) (UniProt O14746). Briefly: Inhibition of telomerase in human A549 cells assessed as increase of intracellular calcium release after 24 hrs using Fluo-3 AM staining by microscopic analysis in presence of BAPTA-AM pretreated for 1 hr. It counts as cell-based.
Assay [4] concerns A549. Briefly: Reduction of colony formation in human A549 cells at 25 uM after 24 hrs by anchorage-independence cell growth assay relative to control. Type of assay: functional. Further details: scale not given: the % may be the effect or the level left.
Assay [5] deals with Telomerase reverse transcriptase (Homo sapiens) (UniProt O14746). Briefly: Inhibition of telomerase in human A549 cells at 25 uM after 24 hrs by TRAP assay in presence of 20 uM of ERK inhibitor PD-98059 pretreated for 1 hr. It counts as cell-based.
Assay [6] relates to A549. Briefly: Reduction of colony formation in human A549 cells at 6.25 uM after 24 hrs by anchorage-independence cell growth assay relative to control. Type of assay: functional. Further details: scale not given: the % may be the effect or the level left.
Assay [7] has as its system A549. In words: Reduction of hTERT mRNA expression in human A549 cells after 6 hrs by RT-PCR analysis. Type of assay: functional, cell-based.
The target in assay [8] is Telomerase reverse transcriptase (Homo sapiens) (UniProt O14746). In words: Inhibition of telomerase in human A549 cells at 25 uM by TRAP assay. Type of assay: cell-based. Conditions: TDE = time-dependent effect.
The test system of assay [9] is A549. Briefly: Cytotoxicity against human A549 cells assessed as reduction of cell proliferation at 50 uM after 24 hrs by MTS assay. Type of assay: functional. Further details: scale not given: the % may be the effect or the level left. Background: Tetrazolium dyes change colour on reduction, which living cells bring about.
The test system of assay [10] is A549. Briefly: Reduction of hTERT protein expression in human A549 cells after 6 hrs by Western blotting. Type of assay: functional, cell-based. A general note: Immunoblotting shows a protein as a band on a membrane.
In assay [11] the target is Telomerase reverse transcriptase (Homo sapiens) (UniProt O14746). Briefly: Inhibition of telomerase in human A549 cells at 25 uM after 24 hrs by TRAP assay in presence of 20 nM of nuclear export inhibitor leptomycin B pretreated for 1 hr. Type of assay: cell-based.
For assay [12], the system named is A549. Briefly: Reduction of hTERT mRNA expression in human A549 cells at 50 uM after 6 hrs by RT-PCR analysis. Type of assay: functional. Further details: scale not given: the % may be the effect or the level left.
Assay [13] deals with Telomerase reverse transcriptase (Homo sapiens) (UniProt O14746). Briefly: Inhibition of telomerase in human A549 cells after 24 hrs by TRAP assay. It counts as cell-based.
The test system of assay [14] is A549. Briefly: Reduction of hTERT protein expression in human A549 cells at 25 uM after 24 hrs by immunofluorescence assay. Type of assay: functional, cell-based.
The target in assay [15] is Telomerase reverse transcriptase (Homo sapiens) (UniProt O14746). In words: Inhibition of telomerase in human A549 cells at 25 uM after 24 hrs by TRAP assay in presence of 50 uM of MAPK inhibitor SB-203580 pretreated for 1 hr. Type of assay: cell-based.
The target is the same in assay [16]. In words: Inhibition of telomerase in human A549 cells at 25 uM after 24 hrs by TRAP assay in presence of 10 uM of MEK inhibitor U0126 pretreated for 1 hr. It counts as cell-based.
The test system of assay [17] is A549. Briefly: Reduction of hTR mRNA expression in human A549 cells at up to 50 uM after 6 hrs by RT-PCR analysis. Type of assay: functional, cell-based.
Assay [18] addresses Telomerase reverse transcriptase (Homo sapiens) (UniProt O14746). In words: Inhibition of telomerase in human A549 cells at 25 uM after 24 hrs by TRAP assay in presence of 20 uM of 26S proteasome inhibitor MG132 pretreated for 1 hr. Type of assay: cell-based.
Assay [19] has as its system A549. Briefly: Reduction of hTR mRNA expression in human A549 cells at 20 uM after 6 hrs by RT-PCR analysis. It counts as functional, cell-based.
Assay [20] concerns A549. In words: Reduction of hTERT protein expression in human A549 cells at 25 uM after 24 hrs by immunofluorescence assay in presence of intracellular calcium chelator BAPTA-AM pretreated for 1 hr. Type of assay: functional, cell-based.
Assay [21] concerns A549. In words: Reduction of hTERT mRNA expression in human A549 cells after 6 hrs by RT-PCR analysis in presence of 20 uM of intracellular calcium chelator BAPTA-AM pretreated for 1 hr. Type of assay: functional, cell-based. Background: Calcium flux is commonly read through the fluorescence of an indicator in the cells.
The target in assay [22] is Telomerase reverse transcriptase (Homo sapiens) (UniProt O14746). In words: Inhibition of telomerase in human A549 cells assessed as increase of intracellular calcium release after 24 hrs using Fluo-3 AM staining by microscopic analysis. Type of assay: cell-based.
Assay [23] shares this target. In words: Inhibition of telomerase in human A549 cells at 25 uM after 24 hrs by TRAP assay in presence of 20 uM of intracellular calcium chelator BAPTA-AM pretreated for 1 hr. Type of assay: cell-based.
The subject of assay [24] is A549. Briefly: Cytotoxicity against human A549 cells assessed as reduction of cell proliferation after 24 hrs by MTS assay. It counts as functional, cell-based.
Assay [25] concerns A549. In words: Translocation of hTERT from nuclei to cytoplasm in human A549 cells at 25 uM after 24 hrs by immunofluorescence assay. Type of assay: functional, cell-based.
Assay [26] addresses Telomerase reverse transcriptase (Homo sapiens) (UniProt O14746). Briefly: Inhibition of telomerase in human A549 cells at 25 uM after 24 hrs by TRAP assay in presence of 50 uM of PI3 K inhibitor LY-294002 pretreated for 1 hr. It counts as cell-based.
Assay [27] has as its system A549. Briefly: Reduction of GADD153 mRNA expression in human A549 cells at up to 50 uM after 6 hrs by RT-PCR analysis. Type of assay: functional, cell-based.

Activity calls are given as the source filed them. The rule behind the calls is not given here.

`C[C@H]1O[C@H](Oc2cc(O)c3c(=O)c(O[C@H]4O[C@H](C)[C@@H](O[C@H]5O[C@H](CO)[C@@H](O)[C@H](O)[C@H]5O)[C@H](O)[C@@H]4O)c(-c4ccc(O)cc4)oc3c2)[C@@H](O)[C@@H](O)[C@@H]1O`: the inhibition result in [1] is “inactive”.
Take `COc1cc(/C=C/C(=O)c2cc(OC)c(OC)c(OC)c2)cc(OC)c1OC`: the inhibition result in [1] was “Active”.
Take `COc1c(O)cc(C(=O)O)cc1O`: in [1], the inhibition result is “inactive”.
On the same count and under the same terms, the entry for `COc1cc(OC)c2c(c1)O[C@H](c1ccccc1)CC2=O` is “inactive”.
For the compound `COc1cc(O)c(C(=O)/C=C/c2cccc(OC)c2OC)c(OC)c1`, the Activity in the assay with A549 [2] was 96%; in the assay with A549 [4], 70%; with A549 [6] it was 23%; in the assay on A549 [7], “Dose-dependent effect”; in the assay on A549 [9], 59%; in the assay on A549 [10], “Dose-dependent effect”. Further, the results for the Activity in the assay on A549 [12] and with A549 [24] were 92% and “Dose-dependent effect”, respectively. In addition, the inhibition entry in assay [3] and in [23] was “inactive” in each case. Further, the inhibition entry in [5], in [1], in [11], in assay [15], in assay [16] and in assay [18] was “Active” throughout. Also, the inhibition result in [26] was “Active”. In addition, the inhibition entry is “tde” in assay [8], “Dose-dependent effect” in [13] and “Dose-dependent effect” in assay [22]. In addition, in the assay with A549 [14], the outcome was Active. Also, the outcome in the assay on A549 [17], in the assay on A549 [19], in the assay on A549 [20], in the assay with A549 [21], with A549 [25] and in the assay on A549 [27] was inactive.
For `COc1ccc(/C=C/C(=O)c2cc(OC)c(OC)c(OC)c2)cc1OC`, the inhibition entry in [1] is “Active”.
Turning to `COc1ccc(/C=C2/COc3cc(O)ccc3C2=O)cc1`, the inhibition entry in [1] was “Active”.
Take `COc1cccc(/C=C/C(=O)c2cc(OC)c(OC)c(OC)c2)c1OC`: in [1], the inhibition entry is “Active”.
Consider `COC[C@H](Cc1ccc(OC)c(OC)c1)[C@H](COC)Cc1ccc(OC)c(OC)c1`, for which the inhibition entry in assay [1] was “inactive”.
In the case of `COc1cc(O)c2c(c1OC)O[C@H](c1ccccc1)CC2=O`, in assay [1], the inhibition result is “inactive”.
In the case of `COc1cc(C(=O)/C=C/c2ccc(N(C)C)cc2)cc(OC)c1OC`, the inhibition entry in [1] was “inactive”.
